The values that follow come from ChEMBL document CHEMBL1141572, “N-substituted 3-acetyltetramic acid derivatives as antibacterial agents” (J Med Chem, 2008).

Common to all, as to type: functional
The test system of one experiment is Escherichia coli. Nature of the experiment: Antibacterial activity against Escherichia coli by micro-broth dilution method.
The next experiment deals with Streptococcus pneumoniae. Kind of experiment: Antibacterial activity against Streptococcus pneumoniae DAW30 by micro-broth dilution method. A general note: Broth dilution looks for growth in wells or tubes with falling amounts of substance.
For the next experiment, the system named is Bacillus anthracis. Kind of experiment: Antibacterial activity against Bacillus anthracis Sterne 34F2 by micro-broth dilution method.
A further experiment deals with Pseudomonas aeruginosa. Kind of experiment: Antibacterial activity against Pseudomonas aeruginosa by micro-broth dilution method.
The test system of another experiment is Cutibacterium acnes. Nature of the experiment: Antibacterial activity against Propionibacterium acnes ATCC 6919 by micro-broth dilution method.
A further experiment concerns Bacillus subtilis. Kind of experiment: Antibacterial activity against Bacillus subtilis ATCC 23857 by microbroth dilution method.
The subject of experiment [1] is Staphylococcus aureus. Nature of the experiment: Antibacterial activity against methicillin-resistant Staphylococcus aureus ATCC 33591 by micro-broth dilution method.
For experiment [2], the system named is Staphylococcus aureus. Kind of experiment: Antibacterial activity against methicillin-sensitive Staphylococcus aureus 8325 ATCC 35556 by micro-broth dilution method.
For the next experiment, the system named is Streptococcus pyogenes. Kind of experiment: Antibacterial activity against Streptococcus pyogenes ATCC 700294 by micro-broth dilution method.
The test system of a further experiment is Enterococcus faecalis. Kind of experiment: Antibacterial activity against Enterococcus faecalis ATCC 33186 by microbroth dilution method.
Experiment [3] has as its system Mycobacterium tuberculosis. Nature of the experiment: Antimycobacterial activity against Mycobacterium tuberculosis H37Rv after 7 days by micro-broth dilution method. Particulars: for MIC: 168 h.

In general, MIC refers to the lowest concentration found to suppress growth. Lower therefore signals a more susceptible organism.

Converted amounts (≈) assume the structure as drawn. The source made the active and inactive calls. The calls are words filed in the database; no cut-off is given here.

For `N#CC1=C(O)[C@@H](Cc2ccccc2)N(Cc2ccccc2)C1=O`, the MIC against Escherichia coli and in the experiment on Pseudomonas aeruginosa was greater than 200 µg/mL each time. Moreover, the result with Streptococcus pneumoniae, in the experiment on Bacillus anthracis, with Cutibacterium acnes, in the experiment with Bacillus subtilis, in the experiment with Staphylococcus aureus [1] and in the experiment on Staphylococcus aureus [2] was inactive. The result (in the experiment with Streptococcus pyogenes; with Enterococcus faecalis; in experiment [3]) was inactive.

For `CC(C)C[C@H]1C(O)=C(C#N)C(=O)N1Cc1ccc(F)cc1`, the minimum inhibitory concentration (MIC) against Escherichia coli and against Pseudomonas aeruginosa was greater than 200 µg/mL each time. Also, the outcome in the experiment on Streptococcus pneumoniae, in the experiment on Bacillus anthracis, in the experiment on Cutibacterium acnes, with Bacillus subtilis, with Staphylococcus aureus [1] and in the experiment on Staphylococcus aureus [2] was inactive. For the same molecule, the outcome (in the experiment on Streptococcus pyogenes; with Enterococcus faecalis; in [3]) was inactive.

As to `CCC(C)[C@H]1C(O)=C(C#N)C(=O)N1Cc1ccccc1` (stereo not given in full), the MIC in the experiment with Escherichia coli and against Pseudomonas aeruginosa was greater than 200 µg/mL each time. The outcome with Streptococcus pneumoniae, with Bacillus anthracis, in the experiment on Cutibacterium acnes, in the experiment on Bacillus subtilis, in the experiment on Staphylococcus aureus [1] and in the experiment on Staphylococcus aureus [2] was inactive. Moreover, the result (in the experiment on Streptococcus pyogenes; with Enterococcus faecalis; in experiment [3]) was inactive.

As to `COc1cccc(CN2C(=O)C(C#N)=C(O)[C@@H]2CC(C)C)c1`, the MIC in the experiment with Escherichia coli and against Pseudomonas aeruginosa was greater than 200 µg/mL in each case. In addition, the result in the experiment on Streptococcus pneumoniae, in the experiment on Bacillus anthracis, in the experiment on Cutibacterium acnes, in the experiment with Bacillus subtilis, in the experiment with Staphylococcus aureus [1] and with Staphylococcus aureus [2] was inactive. The result (in the experiment with Streptococcus pyogenes; with Enterococcus faecalis; in [3]) was inactive.

For the molecule `CCN1C(=O)/C(=C(/C)O)C(=O)[C@@H]1Cc1ccccc1`, the MIC was greater than 200 µg/mL in the experiment with Escherichia coli; greater than 200 µg/mL in the experiment on Streptococcus pneumoniae; 50 µg/mL (≈ 193 µM) in the experiment on Bacillus anthracis; greater than 200 µg/mL in the experiment on Pseudomonas aeruginosa; 100 µg/mL (≈ 386 µM) with Cutibacterium acnes; greater than 200 µg/mL in the experiment on Bacillus subtilis. Moreover, the MIC against Staphylococcus aureus [1] is greater than 200 µg/mL; against Staphylococcus aureus [2], 200 µg/mL (≈ 771 µM); with Streptococcus pyogenes, greater than 200 µg/mL; against Enterococcus faecalis, greater than 200 µg/mL; in [3], greater than 200 µg/mL.

As for `N#CC1=C(O)[C@H](Cc2ccccc2)N(Cc2ccccc2)C1=O`, the minimal inhibitory concentration (MIC) in the experiment on Escherichia coli and against Pseudomonas aeruginosa was greater than 200 µg/mL each time. Besides, the outcome in the experiment on Streptococcus pneumoniae, with Bacillus anthracis, in the experiment on Cutibacterium acnes, with Bacillus subtilis, with Staphylococcus aureus [1] and in the experiment with Staphylococcus aureus [2] was inactive. The result (in the experiment on Streptococcus pyogenes; with Enterococcus faecalis; in experiment [3]) was inactive.

Turning to `CCCCCCCCCCN1C(=O)C(C#N)=C(O)[C@@H]1CC(C)C`, the minimal inhibitory concentration (MIC) with Escherichia coli is greater than 200 µg/mL; against Pseudomonas aeruginosa, greater than 200 µg/mL; in [3], 3.12 µg/mL (≈ 9.74 µM).

On to `CC(C)C[C@@H]1C(O)=C(C#N)C(=O)N1Cc1ccc(F)cc1`, for which the MIC against Escherichia coli and in the experiment with Pseudomonas aeruginosa was greater than 200 µg/mL each time. Also, the result with Streptococcus pneumoniae, in the experiment on Bacillus anthracis, in the experiment on Cutibacterium acnes, in the experiment on Bacillus subtilis, in the experiment with Staphylococcus aureus [1] and in the experiment with Staphylococcus aureus [2] was inactive. Moreover, the result (in the experiment on Streptococcus pyogenes; in the experiment with Enterococcus faecalis; in [3]) was inactive.
